The assay addresses T1, Human α-thrombin (Homo sapiens, UniProt P00734).
T1 construct: Human α-thrombin; purchased Sigma Chemical Co. or Hematologic Technologies
Briefly: Test A: Determination of Thrombin Inhibition with a Chromogenic, Robotic Assay. The format is biochemical. The conditions noted are these: chromogenic substrate S-2366 0.30 mmol/L, α-thrombin 0.020 NIHU/mL, 40 minutes incubation at 37° C. The protocol: Determination of Thrombin Inhibition with a Chromogenic, Robotic Assay
The thrombin inhibitor potency is measured with a chromogenic substrate method, in a Plato 3300 robotic microplate processor (Rosys AG, CH-8634 Hombrechtikon, Switzerland), using 96-well, half volume microtitre plates (Costar, Cambridge, Mass., USA; Cat No 3690). Stock solutions of test substance in DMSO (72 μL), 0.1-1 mmol/L, are diluted serially 1:3 (24+48 μL) with DMSO to obtain ten different concentrations, which are analysed as samples in the assay. 2 μL of test sample is diluted with 124 μL assay buffer, 12 μL of chromogenic substrate solution (S-2366, Chromogenix, Mölndal, Sweden) in assay buffer and finally 12 μL of α-thrombin solution (Human α-thrombin, Sigma Chemical Co. or Hematologic Technologies) in assay buffer, are added, and the samples mixed. The final assay concentrations are: test substance 0.00068-133 μmol/L, S-2366 0.30 mmol/L, α-thrombin 0.020 NIHU/mL. The linear absorbance increment during 40 minutes incubation at 37° C. is used for calculation of percentage inhibition for the test samples, as compared to blanks without inhibitor.
`NC(C(=O)N1[C@H](C(=O)NCc2cc(Cl)ccc2-n2cnnn2)C[C@@H]2C[C@@H]21)c1ccccc1F` (stereo partly drawn) [Example 73, (1S,3S,5S)-2-[2-Amino-2-(2-fluoro-phenyl)-acetyl]-2-aza-bicyclo[3.1.0]hexane-3-carboxylic acid 5-chloro-2-tetrazol-1-yl-benzylamide]: the IC50 was determined as 8 nM.
Next, `NC(C(=O)N1C[C@@H]2C[C@@H]2[C@H]1C(=O)NCc1cc(Cl)ccc1-n1cnnn1)c1ccccc1F` (stereo partly drawn) [Example 74, (1S,2S,5R)-3-[2-Amino-2-(2-fluoro-phenyl)-acetyl]-3-aza-bicyclo[3.1.0]hexane-2-carboxylic acid 5-chloro-2-tetrazol-1-yl-benzylamide]: 29 nM; `O=C(NCc1cc(Cl)ccc1-n1cnnn1)[C@@H]1[C@H]2C[C@H]2CN1C(=O)[C@H]1COCCN1` [Example 75, (1S,2S,5R)-3-((R)-Morpholine-3-carbonyl)-3-aza-bicyclo[3.1.0]hexane-2-carboxylic acid 5-chloro-2-tetrazol-1-yl-benzylamide acetate]: 650 nM.
`O=C(NCc1cc(Cl)ccc1-n1cnnn1)[C@@H]1C[C@@H]2C[C@@H]2N1C(=O)C1(O)CCCc2ncccc21` (stereo partly drawn) [Example 76, (1S,3S,5S)-2-(5-Hydroxy-5,6,7,8-tetrahydro-quinoline-5-carbonyl)-2-aza-bicyclo[3.1.0]hexane-3-carboxylic acid 5-chloro-2-tetrazol-1-yl-benzylamide] registered an IC50 of 11 nM.
Compound `O=C(NCc1cc(Cl)ccc1-n1cnnn1)[C@@H]1C[C@@H]2C[C@@H]2N1C(=O)C1(O)CCCc2ncccc21` (stereo partly drawn) [Example 77, (1S,3S,5S)-2-(5-Hydroxy-5,6,7,8-tetrahydro-quinoline-5-carbonyl)-2-aza-bicyclo[3.1.0]hexane-3-carboxylic acid 5-chloro-2-tetrazol-1-yl-benzylamide] yielded an IC50 of 9 nM.
The same measure for “(1S,3S,5S)-2-(4-Hydroxy-1-benzopyran-4-carbonyl)-2-aza-bicyclo[3.1.0]hexane-3-carboxylic acid 5-chloro-2-tetrazol-1-yl-benzylamide [Example 63]”: 41 nM.

Broadly, the IC50 is the concentration that gives 50% inhibition.
